The results in this text go back to US9370507B2, “Pyridonyl guanidine F1F0-ATPase inhibitors and therapeutic uses thereof” (Lycera Corporation, priority 2010, dated 2016).

The test system of one assay is Ramos cells. Briefly: Cytotoxicity in Ramos cells. The settings on record: Homo sapiens, read-out: Ramos Cell EC50. It counts as cell-based. As to the method: (§1) The compounds listed in Table 4 were tested for activity against F1F0-ATPase by measuring the ability of the compounds to inhibit ATP synthesis. In addition, the compounds were assessed for cytotoxicity in Ramos cells Inhibition of F1F0-ATPase activity in synthesizing ATP and cytotoxicity in Ramos cells were measured according to the procedures described in K. M. Johnson et al. Chemistry & Biology 2005, 12, 485-496.

The target of another assay is T1, F1F0-ATPase (Bos taurus, UniProt P13621).
T1 construct: from tissue
Nature of the assay: Inhibition of F1F0-ATPase activity in synthesizing ATP. It counts as biochemical. To be noted: inhibition of ATP synthesis; read-out: ATP Syn IC50. The method, then:
as §1

As to `CCOC(=O)Nc1cccc(N/C(=N\C(=O)c2ccc(F)c(F)c2)NCc2ccc(Cl)cc2F)n1` [Compound A-112], the 50% effective concentration (EC50) (commonly the concentration that produces a half-maximal response) in the assay on Ramos cells is above 10 µM. Further, at F1F0-ATPase, the 50% inhibitory concentration (IC50) (usually the concentration that inhibits the measured activity by half) was below 10 µM.
Turning to `CS(=O)(=O)Nc1cccc(N/C(=N\C(=O)c2ccc(F)c(F)c2)Nc2cccc(C(F)(F)F)c2)n1` [Compound A-113], the EC50 in the assay with Ramos cells was below 10 µM. The IC50 on F1F0-ATPase is below 10 µM.
For `CS(=O)(=O)Nc1cccc(N/C(=N\C(=O)c2ccc(C(F)(F)F)cc2)NCc2ccccc2C(F)(F)F)n1` [Compound A-114], the EC50 in the assay on Ramos cells is below 10 µM. On F1F0-ATPase, the IC50 is below 10 µM.
For the molecule `CCS(=O)(=O)Nc1cccc(N/C(=N\C(=O)c2ccc(C(F)(F)F)cc2)NCc2ccccc2C(F)(F)F)n1` [Compound A-115], the EC50 in the assay on Ramos cells was below 10 µM. Moreover, the IC50 on F1F0-ATPase is below 10 µM.
On to `O=C(/N=C(/NCc1ccccc1C(F)(F)F)Nc1cccc(NS(=O)(=O)CC(F)(F)F)n1)c1ccc(C(F)(F)F)cc1` [Compound A-116], for which the half-maximal effective concentration (EC50) in the assay with Ramos cells is below 10 µM. Moreover, the IC50 on F1F0-ATPase is below 10 µM.
`O=C(/N=C(/NCc1ccccc1C(F)(F)F)Nc1cccc(NS(=O)(=O)C2CC2)n1)c1ccc(C(F)(F)F)cc1` [Compound A-117]: the EC50 with Ramos cells was below 10 µM. In addition, the concentration for half-maximal inhibition (IC50) on F1F0-ATPase was below 10 µM.
For the molecule `Nc1cccc(N/C(=N\C(=O)c2cccc(C(F)(F)F)c2)Nc2cccc(C(F)(F)F)c2)n1` [Compound A-118], the EC50 with Ramos cells was above 10 µM. Moreover, the IC50 at F1F0-ATPase is above 10 µM.
As to `COc1cccc(N/C(=N\C(=O)c2cccc(C(F)(F)F)c2)Nc2cccc(C(F)(F)F)c2)n1` [Compound A-119], in the assay with Ramos cells, the EC50 is above 10 µM. Also, the IC50 on F1F0-ATPase was above 10 µM.
For `O=C(/N=C(/Nc1cccc(C(F)(F)F)c1)Nc1cccc(Br)n1)c1cccc(C(F)(F)F)c1` [Compound A-120], in the assay on Ramos cells, the EC50 was above 10 µM. At F1F0-ATPase, the IC50 was above 10 µM.
Take `CS(=O)(=O)Nc1cccc(N/C(=N\C(=O)c2ccc(Cl)c(F)c2)NCc2ccc(F)c(Cl)c2)n1` [Compound A-121]: the EC50 in the assay with Ramos cells was below 10 µM. Moreover, the IC50 on F1F0-ATPase was below 10 µM.
Turning to `CS(=O)(=O)Nc1cccc(N/C(=N\C(=O)c2ccc(C(F)(F)F)cc2)NCC(F)(F)F)n1` [Compound A-122], the EC50 in the assay with Ramos cells is above 10 µM. Besides, the IC50 on F1F0-ATPase was below 10 µM.
On the same counts, the results for `CS(=O)(=O)Nc1cccc(N/C(=N\C(=O)c2ccc(C(F)(F)F)cc2)Nc2cc(F)cc(Cl)c2)n1` [Compound A-123] are below 10 µM and below 10 µM.
`CC(C)(C)N/C(=N/C(=O)c1ccc(Cl)cc1)Nc1cccc(NS(=O)(=O)CC(F)(F)F)n1` [Compound A-124]: in the assay with Ramos cells, the EC50 is below 10 µM. Further, at F1F0-ATPase, the IC50 was below 10 µM.
In the case of `O=C(/N=C(/NCC(F)(F)F)Nc1cccc(NS(=O)(=O)CC(F)(F)F)n1)c1ccc(Cl)cc1` [Compound A-125], the EC50 in the assay on Ramos cells is below 10 µM. For the same molecule, at F1F0-ATPase, the IC50 was below 10 µM.
Turning to `CC1(N/C(=N/C(=O)c2ccc(Cl)cc2)Nc2cccc(NS(=O)(=O)CC(F)(F)F)n2)CCC1` [Compound A-126], the EC50 in the assay on Ramos cells is below 10 µM. At F1F0-ATPase, the IC50 was below 10 µM.
For `O=C(/N=C(\Nc1cccc(NS(=O)(=O)CC(F)(F)F)n1)NC(C1CC1)C1CC1)c1ccc(Cl)cc1` [Compound A-127], the EC50 in the assay with Ramos cells was below 10 µM. For the same molecule, the concentration for half-maximal inhibition (IC50) at F1F0-ATPase was below 10 µM.
Take `CC(C)(C)N/C(=N/C(=O)c1ccc(F)c(F)c1)Nc1cccc(NS(=O)(=O)CC(F)(F)F)n1` [Compound A-128]: in the assay with Ramos cells, the concentration giving a half-maximal response (EC50) is below 10 µM. In addition, the IC50 on F1F0-ATPase is below 10 µM.
On to `CC(C)(C)N/C(=N/C(=O)c1ccc(C(F)(F)F)cc1)Nc1cccc(NS(=O)(=O)CC(F)(F)F)n1` [Compound A-129], for which, in the assay on Ramos cells, the 50% effective concentration (EC50) was below 10 µM. Also, the IC50 on F1F0-ATPase is below 10 µM.
For the molecule `CCS(=O)(=O)Nc1cccc(N/C(=N\C(=O)c2ccc(Cl)cc2)Nc2cc(F)cc(Cl)c2)n1` [Compound A-130], the concentration for a half-maximal effect (EC50) with Ramos cells is below 10 µM. Moreover, the IC50 on F1F0-ATPase was below 10 µM.
For the molecule `CCS(=O)(=O)Nc1cccc(N/C(=N\C(=O)c2ccc(Cl)cc2)NCC(C)(C)C)n1` [Compound A-131], the 50% effective concentration (EC50) in the assay on Ramos cells is below 10 µM. For the same molecule, the IC50 at F1F0-ATPase is below 10 µM.
Take `CCS(=O)(=O)Nc1cccc(N/C(=N\C(=O)c2ccc(Cl)cc2)NCc2ccc(Cl)cc2F)n1` [Compound A-132]: in the assay on Ramos cells, the EC50 is below 10 µM. The concentration for half-maximal inhibition (IC50) at F1F0-ATPase was below 10 µM.
On to `CC(C)(C)CN/C(=N/C(=O)c1ccc(Cl)cc1)Nc1cccc(NS(=O)(=O)c2ccccc2)n1` [Compound A-133], for which the EC50 in the assay with Ramos cells was above 10 µM. The IC50 at F1F0-ATPase was below 10 µM.
On the same counts, the results for `CC(C)(C)CN/C(=N/C(=O)c1ccc(Cl)cc1)Nc1cccc(NS(=O)(=O)CC(F)(F)F)n1` [Compound A-134] are below 10 µM and below 10 µM.
Regarding `O=C(N=C(Nc1cc(F)cc(Cl)c1)Nc1cccc(NS(=O)(=O)CC(F)(F)F)n1)c1ccc(Cl)cc1` [Compound A-135], the EC50 with Ramos cells is below 10 µM. Also, the IC50 at F1F0-ATPase was below 10 µM.
On to `O=C(/N=C(/NCc1ccc(Cl)cc1F)Nc1cccc(NS(=O)(=O)CC(F)(F)F)n1)c1ccc(Cl)cc1` [Compound A-136], for which the EC50 in the assay with Ramos cells was below 10 µM. Besides, the IC50 on F1F0-ATPase was below 10 µM.
For `O=C(/N=C(/NCc1ccc(Cl)cc1F)Nc1cccc(NS(=O)(=O)c2ccccn2)n1)c1ccc(Cl)cc1` [Compound A-137], the EC50 in the assay with Ramos cells was above 10 µM. In addition, on F1F0-ATPase, the IC50 was below 10 µM.
For `N#Cc1ccccc1S(=O)(=O)Nc1cccc(N/C(=N\C(=O)c2ccc(Cl)cc2)NCc2ccc(Cl)cc2F)n1` [Compound A-138] the same measures were below 10 µM and below 10 µM.
Turning to `CC(C)(C)CN/C(=N/C(=O)c1ccc(Cl)cc1)Nc1cccc(NC(=O)C(C)(C)C)n1` [Compound A-139], the EC50 in the assay with Ramos cells was above 10 µM. The IC50 on F1F0-ATPase was above 10 µM.
As for `CC(=O)Nc1cccc(NC(=NC(=O)c2ccc(Cl)cc2)Nc2cc(F)cc(Cl)c2)n1` [Compound A-140], in the assay with Ramos cells, the EC50 was above 10 µM. The IC50 on F1F0-ATPase is below 10 µM.
As to `CC(C)(C)CN/C(=N/C(=O)c1ccc(Cl)cc1)Nc1cccc(NS(=O)(=O)c2ccccc2C#N)n1` [Compound A-141], in the assay on Ramos cells, the EC50 was below 10 µM. Further, at F1F0-ATPase, the IC50 is below 10 µM.
Regarding `N#Cc1ccccc1S(=O)(=O)Nc1cccc(NC(=NC(=O)c2ccc(Cl)cc2)Nc2cc(F)cc(Cl)c2)n1` [Compound A-142], the EC50 in the assay with Ramos cells was below 10 µM. The IC50 on F1F0-ATPase is below 10 µM.
Regarding `CC(=O)Nc1cccc(N/C(=N\C(=O)c2ccc(Cl)cc2)NCC(C)(C)C)n1` [Compound A-143], in the assay with Ramos cells, the EC50 was below 10 µM. Further, the IC50 on F1F0-ATPase is below 10 µM.
Take `CC(C)(C)CN/C(=N/C(=O)c1ccc(Cl)cc1)Nc1cccc(NS(=O)(=O)c2cccnc2)n1` [Compound A-144]: in the assay on Ramos cells, the EC50 is above 10 µM. Also, the IC50 at F1F0-ATPase is below 10 µM.
On to `Cn1cnc(S(=O)(=O)Nc2cccc(N/C(=N\C(=O)c3ccc(Cl)cc3)NCC(C)(C)C)n2)c1` [Compound A-145], for which, in the assay on Ramos cells, the EC50 was above 10 µM. Also, the IC50 on F1F0-ATPase is above 10 µM.
For the molecule `Cc1noc(C)c1S(=O)(=O)Nc1cccc(N/C(=N\C(=O)c2ccc(Cl)cc2)NCc2ccc(Cl)cc2F)n1` [Compound A-146], in the assay with Ramos cells, the EC50 is below 10 µM. Further, on F1F0-ATPase, the IC50 was below 10 µM.
As for `O=C(N=C(Nc1cc(F)cc(Cl)c1)Nc1cccc(NS(=O)(=O)c2cccnc2)n1)c1ccc(Cl)cc1` [Compound A-147], the EC50 in the assay on Ramos cells is below 10 µM. The IC50 on F1F0-ATPase was below 10 µM.
Consider `O=C(/N=C(/NCc1ccc(Cl)cc1F)Nc1cccc(NS(=O)(=O)c2cccnc2)n1)c1ccc(Cl)cc1` [Compound A-148], for which the EC50 in the assay on Ramos cells is below 10 µM. The IC50 at F1F0-ATPase is below 10 µM.
For `O=C(/N=C(/NCc1ccccc1C(F)(F)F)Nc1cccc(NS(=O)(=O)CC(F)(F)F)n1)c1ccc(F)c(F)c1` [Compound A-149], in the assay on Ramos cells, the EC50 is below 10 µM. At F1F0-ATPase, the IC50 was below 10 µM.
With `CCS(=O)(=O)Nc1cccc(N/C(=N\C(=O)c2ccc(F)c(F)c2)NCc2ccccc2C(F)(F)F)n1` [Compound A-150], the EC50 with Ramos cells is above 10 µM. Moreover, the IC50 at F1F0-ATPase was below 10 µM.
Consider `N#CCS(=O)(=O)Nc1cccc(N/C(=N\C(=O)c2ccc(F)c(F)c2)NCc2ccccc2C(F)(F)F)n1` [Compound A-151], for which, in the assay with Ramos cells, the concentration for a half-maximal effect (EC50) was below 10 µM. In addition, the IC50 at F1F0-ATPase was below 10 µM.
